Measured values: patent US7745390B2, “Antimicrobial peptides” (priority 2005, dated 2010)
≈ marks a conversion by molar mass, not a printed value. Square brackets hold non-standard residues; d marks the D form. Peptide text beside a SMILES is read from it.

Experiments:
bacteria = assay: Activity in DMEM and RPMI media (lysis of bacteria); assay type: cell-based; conditions: either 10 mM phosphate buffer or DMEM
Method in brief: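 Log-phase bacteria (2-4 h after overnight LB growth) exposed to peptides in DMEM or RPMI, with or without 10% fetal calf, human or mouse serum, generally 3 h or less. Viability by CFU: aliquots diluted in LB, plated on LB agar, incubated overnight at 37° C and colonies counted.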

[1] = Degree of helicity by circular dichroism; assay type: physicochemical
Method: For designing analogues of the present sequences, as taught herein, the Table also presents data on the degree of helicity of the active peptides, as measured by circular dichroism. It should be noted that a number of the active peptides listed in the figure are not alpha helices at all. At least one peptide tested was considered to be a random coil, with no detectible secondary structure evident in the circular dichroism measurement.
The MIC values are for E. coli in 10 mM phosphate buffer. The peptides were derived by the inventors from granulysin helix 3. […] It contains an equal number of hydrophobic and positively charged amino acids, can adapt an αhelical structure, and is very amphipathic. In contrast, the remaining 3 peptides all retain activity in DMEM even in the presence of serum. These peptides contain more positive residues than hydrophobic residues. G12.21 contains 2 proline residues, G11.46 is based on a modification of the helix three sequence (RRVSRRFMRR) (SEQ ID NO: 91) with a 5 arginine extension at the NH2 terminus, and G14.15 includes loop 2/RRVSRRFMRR (SEQ ID NO: 91).

bacterial strains = assay: organism not typed; assay type: cell-based
Method: (§1) Three preferred peptides G11.46, G12.21 and G14.15, discussed above, were further tested for antimicrobial efficacy under various conditions using the 10% FCS/DMEM assay as described under CFU assay. The incubation times with the bacteria and peptide was three hours, at which time the bacteria were diluted and plated on agar. […] The MIC for each compound is highlighted.
Table 9 below repeats some data presented above in Tables 6, 7, and 8.

[2] = test system: antibiotic resistant bacteria obtained from clinical isolates; assay: Susceptibility of antibiotic resistant clinical isolates in DMEM with or without serum; assay type: cell-based
Method: In addition to the data given above, the susceptibility of a panel of antibiotic resistant bacteria obtained from clinical isolates was tested. All of these are killed by the G11.46, G12.21, and G14.15 in DMEM with or without serum.

E. coli DH5a = assay type: cell-based; conditions: DH5a
Method in brief: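 Bacterial suspensions (~5×10^6 CFU/ml) and serially diluted peptides, both in low-nutrient phosphate buffer (pH 7.2, 0.03% LB), are combined and held 3 h at 37 °C. Full LB is added for overnight growth. The MIC marks no growth, and IC50 marks 50% growth relative to medium.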

Staphylococcus aureus = assay: CFU assay in 10% FCS/DMEM; assay type: cell-based; conditions: 3 hrs
Method: (§2) The CFU assay is the “gold standard” for evaluating antibiotics. Briefly, bacteria are grown overnight in rich medium, such as LB, and then diluted and grown in log phase for 2-4 hours. Cultures are set up as above, with the initial culture media being 10 mM phosphate buffer/0.03% LB; DMEM or RPMI; or DMEM or RPMI plus 10% serum (fetal calf, human, or mouse). After various periods of time, but generally 3 hours or less, aliquots are removed, diluted in LB at various dilutions, and plated on LB agar plates. Plates are incubated overnight at 37° C. and counted on an automatic colony counter.
as §1

Salmonella typhimurium = assay: CFU assay in 10% FCS/DMEM; assay type: cell-based; conditions: 3 hrs
Method: as §2, §1

E. coli = assay: CFU assay in 10% FCS/DMEM; assay type: cell-based; conditions: 3 hrs
Method: as §2, §1

B. cereus = assay: CFU assay in 10% FCS/DMEM; assay type: cell-based; conditions: 3 hrs
Method: as §2, §1

For `CSCC[C@H](NC(=O)[C@H](Cc1ccccc1)NC(=O)[C@@H](CCCNC(=N)N)NC(=O)[C@@H](CCCNC(=N)N)NC(=O)[C@H](CO)NC(=O)[C@@H](NC(=O)[C@@H](CCCNC(=N)N)NC(=O)[C@@H](CCCNC(=N)N)NC(=O)[C@@H](CCCNC(=N)N)NC(=O)[C@@H](CCCNC(=N)N)NC(=O)[C@@H](CCCNC(=N)N)NC(=O)[C@@H](CCCNC(=N)N)NC(=O)[C@H](N)CCCNC(=N)N)C(C)C)C(=O)N[C@H](CCCNC(=N)N)C(=O)N[C@H](CCCNC(=N)N)C(=O)O` [Peptide G11.46, rrrrrrrVSrrFMrr] (H-[dR][dR][dR][dR][dR][dR][dR]VS[dR][dR]FM[dR][dR]-OH; N-terminus and C-terminus assumed), the “lysis of bacteria and fungi” value (bacteria) was “lyse both gram negative bacteria and gram negative bacteria, as well as fungi”, the “% α-helix” value ([1]; Table 4) was 0% and the secondary structure ([1]; aqueous solution or TFE where stated) was “random coils in aqueous solution or in TFE”. It also gave an MIC (bacterial strains; ATCC#25922, 3 h) of 0.32 to 0.63 µM, an MIC (bacterial strains; ATCC#29213, 3 h) of 0.04 to 0.08 µM and an MIC (bacterial strains; ATCC#53522, 3 h) of 0.02 µM (≈ 0.044 µg/mL). For the same molecule, the MIC (bacterial strains; SL1344, 3 h) was 0.63 to 1.25 µM, the “killing of antibiotic resistant clinical isolates” value [2] was “killed” and the MIC (E. coli DH5a) was 0.8 µM (≈ 1.76 µg/mL). For the same molecule, the “E. coli DH5a MIC” value (E. coli DH5a; pH 7.2) was 0.8 µM, the IC50 (E. coli DH5a; pH 7.2) was 100 nM and the “% Survival (CFU Assay)” value (Staphylococcus aureus; 0.005 μM) was 19.9%. The “% Survival (CFU Assay)” value (Staphylococcus aureus; 0.01 μM) was 8.04%, the “% Survival (CFU Assay)” value (Staphylococcus aureus; 0.02 μM) was 2.3% and the “% Survival (CFU Assay)” value (Staphylococcus aureus; 0.04 μM) was 0.84%. For the same molecule, the “% Survival (CFU Assay)” value (Staphylococcus aureus; 0.08 μM) was 0.2%, the “% Survival (CFU Assay)” value (Staphylococcus aureus; 0.16 μM) was 0.02% and the “% Survival (CFU Assay)” value (Salmonella typhimurium; 0.02 μM) was 116.09%. For the same molecule, the “% Survival (CFU Assay)” value (Salmonella typhimurium; 0.04 μM) was 126.32%, the “% Survival (CFU Assay)” value (Salmonella typhimurium; 0.08 μM) was 105% and the “% Survival (CFU Assay)” value (Salmonella typhimurium; 0.16 μM) was 71.35%. For the same molecule, the “% Survival (CFU Assay)” value (Salmonella typhimurium; 0.32 μM) was 24.68%, the “% Survival (CFU Assay)” value (Salmonella typhimurium; 0.63 μM) was 1.45% and the “% Survival (CFU Assay)” value (Salmonella typhimurium; 1.25 μM) was 0.03%. For the same molecule, the “% Survival (CFU Assay)” value (Salmonella typhimurium; 2.5 μM) was under 0.002%, the “% Survival (CFU Assay)” value (E. coli; 0.01 μM) was 98.89% and the “% Survival (CFU Assay)” value (E. coli; 0.02 μM) was 166.22%. For the same molecule, the “% Survival (CFU Assay)” value (E. coli; 0.04 μM) was 132.25%, the “% Survival (CFU Assay)” value (E. coli; 0.08 μM) was 89.24% and the “% Survival (CFU Assay)” value (E. coli; 0.16 μM) was 31.77%. The “% Survival (CFU Assay)” value (E. coli; 0.32 μM) was 2.02%, the “% Survival (CFU Assay)” value (E. coli; 0.63 μM) was under 0.002% and the “% Survival (CFU Assay)” value (E. coli; 1.25 μM) was under 0.002%. The “% Survival (CFU Assay)” value (B. cereus; 0.005 uM) was 103.49%, the “% Survival (CFU Assay)” value (B. cereus; 0.01 uM) was 44.62% and the “% Survival (CFU Assay)” value (B. cereus; 0.02 uM) was under 0.5%. For the same molecule, the “% Survival (CFU Assay)” value (B. cereus; 0.04 uM) was 0.02%, the “% Survival (CFU Assay)” value (B. cereus; 0.08 uM) was 0.002% and the “% Survival (CFU Assay)” value (B. cereus; 0.16 uM) was 0.002%.
